Laboratory results from patent US20240300987A1, “TRAP1 INHIBITOR AND USE THEREOF” (SMARTIN BIO INC., priority 2021, published 2024).

How the values were obtained:
HIF1α = experiment: Drug activity assay using MIO-M1 HRE/GFP cell line under hypoxia; type: cell-based; settings: for IC50: MIO-M1, 24 h, HIF1α inhibitory activity in MIO-M1 cells, 1% O2 24 hours; for Activity compared to that of SMX: HIF1α inhibition, relative to SMX of the same table
Procedure: After transfection (jetPRIME kit) of MIO-M1 Müller cells with 5HRE/GFP plasmid (Addgene, #46926), the cells transfected with the plasmid were selected using 1 mg/ml of G418 (Neomycin), a selectable marker. A stable cell line was constructed by selecting cells, growing in a colony form, from single cells. The prepared MIO-M1-HRE/GFP stable cell line was dispensed into a 96-well plate and treated with drugs at different concentrations the next day. After being exposed to a hypoxic environment (1% O2) for 24 hours, the GFP (Ex/Em: 488/507) fluorescence signal was measured using a SYNERGY NEO microplate reader (BioTek Instrument). The relative fluorescence value was calculated on the basis of 100% of the negative control group.

[1] = target: T1, human full-length TRAP1 protein (Homo sapiens, UniProt Q12931); experiment: Fluorescence polarization (FP) analysis using SB-TM2 probe (client-binding site); settings: for IC50: FP analysis using SB-TM2; for Activity compared to that of SMX: TRAP1 binding, relative to SMX of the same table
T1 construct: containing human full-length TRAP1 protein (400 nM); hexahistidine tag followed by TEV protease cleavage site (N, cleaved yes); made in house; host or cells: E. coli BL21 (DE3)
T1 sequence (Q12931 60-704): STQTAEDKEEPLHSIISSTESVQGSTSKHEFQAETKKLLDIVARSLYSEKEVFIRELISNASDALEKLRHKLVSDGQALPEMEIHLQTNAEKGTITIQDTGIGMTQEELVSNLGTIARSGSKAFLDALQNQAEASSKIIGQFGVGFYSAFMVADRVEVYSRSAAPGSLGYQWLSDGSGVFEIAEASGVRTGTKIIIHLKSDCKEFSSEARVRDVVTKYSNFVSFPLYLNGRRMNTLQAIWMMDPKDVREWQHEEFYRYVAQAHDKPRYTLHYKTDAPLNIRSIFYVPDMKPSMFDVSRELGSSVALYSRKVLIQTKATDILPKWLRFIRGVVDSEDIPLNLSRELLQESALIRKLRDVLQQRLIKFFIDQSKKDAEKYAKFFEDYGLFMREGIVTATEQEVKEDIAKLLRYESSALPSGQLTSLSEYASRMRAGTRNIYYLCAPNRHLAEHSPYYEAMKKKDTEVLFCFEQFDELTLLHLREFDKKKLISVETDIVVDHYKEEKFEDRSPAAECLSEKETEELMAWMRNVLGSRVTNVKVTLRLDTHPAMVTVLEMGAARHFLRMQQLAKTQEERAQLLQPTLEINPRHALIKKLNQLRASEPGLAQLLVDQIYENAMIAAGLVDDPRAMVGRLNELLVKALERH
Procedure: The substance to be analyzed (at a final volume of 100 μL) was added to FP buffer ([…], 2.7 mM KCl, 4.3 mM Na2HPO4, 1.4 mM KH2PO4 (pH 7.3), 1 mM DTT, 2 mM MgCl2, and 0.1 mg/mL BSA) containing human full-length TRAP1 protein (400 nM) and SB-TM2 probe (100 nM) and then reacted at room temperature for 1 hour (96-well plate). Using a SYNERGY NEO microplate reader, FP was measured at an excitation wavelength set to 440 nm and an emission wavelength set to 500 nm.

[2] = Table 9, other synthetic compounds
[3] = Table 4, other synthetic compounds
[4] = Table 8, other synthetic compounds
[5] = Table 3, other synthetic compounds

Row | Compound | IC50 (HIF1α; Table 6, alkyl-TPPs) [nM] | Activity compared to that of SMX (HIF1α; Table 6) | IC50 ([1]; Table 1, alkyl-TPPs) [nM] | Activity compared to that of SMX ([1]; Table 1) | IC50 (HIF1α; [2]) [nM] | Activity compared to that of SMX (HIF1α; Table 9) | further results
1 | CCCCCCCCCC[P+](c1ccccc1)(c1ccccc1)c1ccccc1 [TPP-10, Decyltriphenylphosphonium] | 314 ± 57.8 | 1.49 | 693 ± 57.8 | 0.90 | – | – | –
2 | COc1c(C)c(CCCCCCCCCC[P+](c2ccccc2)(c2ccccc2)c2ccccc2)c(OC)c(OC)c1OC [SB-U014, Triphenyl(10-(2,3,4,5-tetramethoxy-6-methylphenyl)decyl)phosphonium] | – | – | – | – | 69.4 ± 3.1 | 4.02 | IC50 [1, 3]: 805 ± 99.4 nM
3 | CC1=C(CCCCCCCCCC[P+](c2ccccc2)(c2ccccc2)c2ccccc2)C(=O)c2ccccc2C1=O [SB-K001, (10-(3-Methyl-1,4-dioxo-1,4-dihydronaphthalen-2-yl)decyl)triphenylphosphonium] | – | – | – | – | 55.5 ± 3.3 | 5.03 | IC50 [1, 3]: 166 ± 23 nM; Activity compared to that of SMX ([1]; Table 4): 2.45
4 | CCCCCCCCCCCC[P+](c1ccccc1)(c1ccccc1)c1ccccc1 [TPP-12, Dodecyltriphenylphosphonium] | 111 ± 35.4 | 4.21 | 377 ± 35.4 | 1.65 | – | – | binding capacity compared to that of SMX (MitoQ) ([1]; result in words): superior to that of SMX
5 | CC1(C)CC(NC(=O)C[P+](c2ccccc2)(c2ccccc2)c2ccccc2)CC(C)(C)N1[O] [Mito-TEMPO, reference compound] | – | – | – | – | – | – | TRAP1 binding capacity (competitive binding with SB-TM2, CBS of TRAP1) ([1]; result in words): do not exhibit TRAP1 binding capacity
6 | CC1=C(C)C(=O)C(CCCCCCCCCC[P+](c2ccccc2)(c2ccccc2)c2ccccc2)=CC1=O [SkQ1, (10-(4,5-Dimethyl-3,6-dioxocyclohexa-1,4-diene-1-yl)decyl)triphenylphosphonium, reference compound] | – | – | – | – | – | – | IC50 (HIF1α; Table 7, TPP-antioxidant conjugates): 183 ± 9.1 nM; Activity compared to that of SMX (HIF1α; Table 7): 1.79; IC50 ([1]; Table 2, antioxidant-TPP conjugates): 696 ± 55.4 nM
7 | COc1c(Br)c(C)c(CCCCCCCCCC[P+](c2ccccc2)(c2ccccc2)c2ccccc2)c(OC)c1OC [SB-U005, (10-(3-Bromo-4,5,6-trimethoxy-2-methylphenyl)decyl)triphenylphosphonium] | – | – | – | – | – | – | IC50 (HIF1α; [4]): 131 ± 9.1 nM; Activity compared to that of SMX (HIF1α; Table 8): 3.92; IC50 [1, 5]: 385 ± 83.5 nM
8 | CCCCCC[P+](c1ccccc1)(c1ccccc1)c1ccccc1.[Br-] [TPP-6, hexyltriphenylphosphonium bromide, reference compound] | 1430 | 0.33 | 18800 ± 5390 | 0.03 | – | – | –
9 | COc1c(O)c(C)c(CCCCCCCCCC[P+](c2ccccc2)(c2ccccc2)c2ccccc2)c(Br)c1OC [SB-U009, (10-(2-Bromo-5-hydroxy-3,4-dimethoxy-6-methylphenyl)decyl)triphenylphosphonium] | – | – | – | – | – | – | IC50 (HIF1α; [4]): 191 ± 23.6 nM; Activity compared to that of SMX (HIF1α; Table 8): 2.69; IC50 [1, 5]: 909 ± 136 nM; Activity compared to that of SMX ([1]; Table 3): 0.8701
10 | c1ccc(CCCCCCCCCC[P+](c2ccccc2)(c2ccccc2)c2ccccc2)cc1 [SB-B001, Triphenyl(10-phenyldecyl)phosphonium] | – | – | – | – | 94.7 ± 13.2 | 2.95 | IC50 [1, 3]: 2970 ± 1050 nM; Activity compared to that of SMX ([1]; Table 4): 0.14
11 | c1ccc([P+](CCCCCCCCCCC2CCCCC2)(c2ccccc2)c2ccccc2)cc1 [SB-B002, (10-Cyclohexyldecyl)triphenylphosphonium chloride] | – | – | – | – | 22.3 ± 1 | 12.51 | –
12 | CCCCCCCC[P+](c1ccccc1)(c1ccccc1)c1ccccc1 [TPP-8, Octyltriphenylphosphonium] | 643 ± 258 | 0.73 | 2570 ± 258 | 0.24 | – | – | TRAP1 binding capacity (competitive binding with SB-TM2, CBS of TRAP1) ([1]; result in words): competitive binding with SB-TM2 was confirmed to be enabled; TRAP1 binding capacity (competitive binding with SB-TM2, CBS of TRAP1) ([1]; result in words, listed as octyl-TPP): competitive binding to SB-TM2 is confirmed to be enabled
13 | COc1c(C)c(CCCCCCCCCC[P+](c2ccccc2)(c2ccccc2)c2ccccc2)c(Br)c(OC)c1OC [SB-U012, (10-(2-Bromo-3,4,5-trimethoxy-6-methylphenyl)decyl)triphenylphosphonium] | – | – | – | – | – | – | IC50 (HIF1α; [4]): 177 ± 8.8 nM; Activity compared to that of SMX (HIF1α; Table 8): 2.90; IC50 [1, 5]: 601 ± 90.6 nM; Activity compared to that of SMX ([1]; Table 3): 1.315
